Broadly, the Dmax is the greatest extent of degradation seen. In general, DC50 refers to the concentration giving 50% degradation.

Where two headings read alike, the source gives them in different places.

The values below come from patent US12559506B2, “Indazole based compounds and associated methods of use” (Arvinas Operations, Inc., priority 2021, dated 2026).

The assay has as its target T1, LRRK2 (endogenous, HiBit tagged) (Homo sapiens, UniProt Q5S007).
T1 construct: endogenous in cells; host or cells: HEK293 cells with HiBit knock-in at the endogenous LRRK2 locus, stably expressing firefly luciferase
The experiment in a line: Endogenous LRRK2 degradation assay, endogenous gene C-terminally HiBit-tagged in HEK293 cells (Nano-Glo Dual Luciferase). The assay is classed as cell-based. An excerpt:
Exemplary Assay for Testing LRRK2 Degradation Driven by Exemplary Hetero-Bifunctional Compounds Designed to Target LRRK2
The assay measures the degradation of LRRK2 in cells where the C-terminus (3′) of the endogenous gene has been tagged with a HiBit sequence in HEK293 cells. The cells also express firefly luciferase, expressed from a Cytomegalovirus promoter and introduced into the HiBit tagged cells and stably expressed. The Nano-Glo® Dual Luciferase Reporter Assay System (Promega™, Madison, WI) was utilized.
Day 1—Preparation of Compound and Assay Plates. Two sets of plates were prepared: a triplicate set for the HiBit assay in white 384-well plates and a triplicate set of plate in black 384-well plates for the Alamar Blue cell viability assay. Briefly, the growth media (DMEM+Glutamax-10% fetal bovine serum-1% Penicillin-Streptomicin) from two T128 flasks was aspirated from the flasks. Cells were washed with Dulbecco's Phosphate Buffered Saline (dPBS) and aspirated. Trypsin (3 mL per flask) was added and the flasks were incubated for 2-3 minutes.
Ten mL of OptiMEM-10% fetal bovine-1% penicillin-streptomycin (hereinafter, “OptiMEM media”) was added to the flask and the cells and transferred to a 50 mL conical tube. A cell count (25 ul of cell into Effendorf vial+25 ul of Trypan Blue Stain) was performed and the cell density adjusted to 15,000 cell/45 μl/well (3.33×10^5/mL) in OptiMEM media.
Fourty-five microliters of the cell suspension (15,000 cells) was aliquoted to each well of the white 384-well plate. The plates incubated at room temperature for 10 minutes before being placed in the 37° C.+5% CO2 incubator overnight
Day 2—Compound Treatment. Exemplary compounds were prepared at a 1 mM starting concentration and 1:3 serial dilution for 11 points CRC prepared and stored in the freezer. The Master Compound Plate was thawed overnight at room temperature. DMSO (20 μL) was added into column 24 of the Master Compound Plate for negative control and 20 μL of 300 μM of Compound 4 in column 23 as positive control.
Intermediate Compound Plate with 4% DMSO in OptiMEM Media. DMSO was added to warm OptiMEM media to achieve a 4% DMSO solution (approximately 50 mL/plate). One-hundred microliters of the OptiMEM-4% DMSO was aliquoted to each well of 384-Well Deep Well Microplates.
The Master Compound Plate and the Intermediate Compound Plate were spun down.
One microliter of compound from the Master Compound Plate was transferred into the Intermediate plate (a 1:100 dilution). The diluted mixture was mixed and 5 μL transferred into the assay plate (a 1:10 dilution) for the final starting concentration of 1 μM. The Treated Assay plates were incubated for 24 hours at 37° C.+5% CO2. The Master Compound Plate was sealed and store at room temperature for a second run that was performed within a week.
Day 3—HiBit Assay. Five microliters of Alamar Blue was added to each well of the black 384-well plates. The plates were incubated for 2 hours in the incubator (37° C.+5% CO2) and at room temperature for one hour. Fluorescence of each plate was read on a plated reader for the Alamar Blue viability assay.
One set of white assay plates was warmed to room temperature (45 minute).
The One Glo luciferase mixture was prepared. The media from white 384-well assay plates was aspirated. Twenty-five μL of the One Glo luciferase mixture was added to each well of the assay plates. The plates were incubated on the bench (room temperature) for 45 minutes, including 10 minutes of shaking at 700 rpm. The luminescence of each plate was read on a plate reader.
1:100 DLR substrate and 1:100 LgBiT Protein dilution were added to the Promega Stop and Glo buffer and mixed just before addition to assay plates. Twenty-five microliters of Stop and Glo mixture was added to each well. Assay plates incubated for at least 45 minutes, including 10 minutes of shaking at 700 rpm. The luminescence of each plate was read on a plate reader.
Analysis of LRRK2 HiBit Screening assays. […]
(In general: The HiBiT peptide binds its large partner to form an active luciferase.)

[1] abbreviates: endogenous HiBit-tagged LRRK2 in HEK293 cells, 24 hours treatment, read-out: **Endogenous WT Dmax (%).
[2] abbreviates: endogenous HiBit-tagged LRRK2 in HEK293 cells, 24 hours treatment, read-out: *Endogenous WT DC50.
Setting [3] is: endogenous HiBit-tagged LRRK2 in HEK293 cells, 24 hours treatment, read-out: Endogenous WT DC50.
The mark [4] stands for this setting: endogenous HiBit-tagged LRRK2 in HEK293 cells, 24 hours treatment, read-out: Endogenous WT Dmax.

T1 sequence (Q5S007 whole entry): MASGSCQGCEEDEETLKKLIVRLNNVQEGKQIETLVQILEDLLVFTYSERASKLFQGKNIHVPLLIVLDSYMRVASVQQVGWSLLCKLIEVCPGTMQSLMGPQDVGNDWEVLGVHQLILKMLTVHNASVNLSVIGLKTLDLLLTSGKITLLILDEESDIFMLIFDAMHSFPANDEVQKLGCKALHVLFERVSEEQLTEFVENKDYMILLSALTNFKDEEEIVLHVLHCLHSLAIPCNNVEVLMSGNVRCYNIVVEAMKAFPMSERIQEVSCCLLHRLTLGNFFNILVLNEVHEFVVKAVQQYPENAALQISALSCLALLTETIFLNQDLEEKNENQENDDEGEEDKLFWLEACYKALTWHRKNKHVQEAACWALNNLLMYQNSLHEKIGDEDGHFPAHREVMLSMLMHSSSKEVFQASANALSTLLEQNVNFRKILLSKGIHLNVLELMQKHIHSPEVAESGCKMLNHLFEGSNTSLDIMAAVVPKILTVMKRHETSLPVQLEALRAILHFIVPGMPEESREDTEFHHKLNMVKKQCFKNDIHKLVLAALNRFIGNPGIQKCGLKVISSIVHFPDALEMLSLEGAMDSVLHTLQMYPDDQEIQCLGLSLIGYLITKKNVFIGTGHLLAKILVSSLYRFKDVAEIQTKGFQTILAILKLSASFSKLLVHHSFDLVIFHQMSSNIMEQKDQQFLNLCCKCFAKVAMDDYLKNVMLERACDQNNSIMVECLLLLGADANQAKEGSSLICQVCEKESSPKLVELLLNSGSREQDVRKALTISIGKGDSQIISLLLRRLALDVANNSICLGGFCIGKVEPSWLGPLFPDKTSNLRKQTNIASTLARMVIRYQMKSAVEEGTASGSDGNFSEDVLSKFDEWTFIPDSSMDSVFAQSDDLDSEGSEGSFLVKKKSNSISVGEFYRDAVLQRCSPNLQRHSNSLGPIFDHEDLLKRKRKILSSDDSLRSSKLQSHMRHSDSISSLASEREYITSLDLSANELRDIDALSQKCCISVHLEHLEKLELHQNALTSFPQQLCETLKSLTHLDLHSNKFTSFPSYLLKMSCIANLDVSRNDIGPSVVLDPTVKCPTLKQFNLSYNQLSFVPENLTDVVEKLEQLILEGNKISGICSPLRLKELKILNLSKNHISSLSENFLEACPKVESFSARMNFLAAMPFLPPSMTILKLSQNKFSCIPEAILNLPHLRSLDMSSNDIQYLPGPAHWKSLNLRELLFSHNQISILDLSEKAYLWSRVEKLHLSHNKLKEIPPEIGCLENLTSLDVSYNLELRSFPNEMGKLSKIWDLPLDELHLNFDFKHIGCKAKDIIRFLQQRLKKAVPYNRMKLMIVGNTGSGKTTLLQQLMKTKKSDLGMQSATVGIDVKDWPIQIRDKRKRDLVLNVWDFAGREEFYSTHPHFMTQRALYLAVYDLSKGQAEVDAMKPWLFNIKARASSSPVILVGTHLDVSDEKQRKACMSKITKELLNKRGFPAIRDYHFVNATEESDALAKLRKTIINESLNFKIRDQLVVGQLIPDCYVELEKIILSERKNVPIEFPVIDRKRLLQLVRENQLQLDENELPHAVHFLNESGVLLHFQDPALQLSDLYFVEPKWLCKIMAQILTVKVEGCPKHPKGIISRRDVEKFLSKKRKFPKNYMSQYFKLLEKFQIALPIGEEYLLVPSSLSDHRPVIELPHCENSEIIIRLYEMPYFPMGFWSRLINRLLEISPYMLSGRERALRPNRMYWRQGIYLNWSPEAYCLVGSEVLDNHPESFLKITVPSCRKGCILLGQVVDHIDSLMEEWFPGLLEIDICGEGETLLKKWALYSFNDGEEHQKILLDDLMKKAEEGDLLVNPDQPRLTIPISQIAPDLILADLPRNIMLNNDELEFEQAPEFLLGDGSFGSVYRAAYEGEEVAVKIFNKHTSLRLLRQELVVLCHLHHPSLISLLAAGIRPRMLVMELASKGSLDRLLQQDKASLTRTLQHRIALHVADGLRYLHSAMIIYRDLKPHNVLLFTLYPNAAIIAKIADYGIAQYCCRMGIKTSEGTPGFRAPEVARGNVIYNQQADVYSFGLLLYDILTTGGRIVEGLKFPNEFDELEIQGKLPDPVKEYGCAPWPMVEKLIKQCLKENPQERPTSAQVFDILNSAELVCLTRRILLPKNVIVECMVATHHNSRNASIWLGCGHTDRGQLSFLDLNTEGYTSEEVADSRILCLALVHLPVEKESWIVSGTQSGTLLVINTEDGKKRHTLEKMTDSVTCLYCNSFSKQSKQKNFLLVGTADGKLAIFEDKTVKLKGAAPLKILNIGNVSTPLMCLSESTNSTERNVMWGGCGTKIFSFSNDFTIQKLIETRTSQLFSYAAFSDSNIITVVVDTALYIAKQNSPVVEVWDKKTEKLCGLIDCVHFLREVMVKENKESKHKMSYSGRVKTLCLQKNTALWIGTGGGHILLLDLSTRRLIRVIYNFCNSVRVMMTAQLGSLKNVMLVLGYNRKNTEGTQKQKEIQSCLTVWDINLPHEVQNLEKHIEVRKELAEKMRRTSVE

In the case of `COc1c(N2CCC(O[C@H]3CCN(CC4CCN(c5cc(-c6n[nH]c7ccc(OC8(C)CC8)cc67)ncn5)CC4)C(C)(C)C3)CC2)ccc2c1CN(C1CCC(=O)NC1=O)C2=O` (stereo partly drawn) [Compound 316, 3-[5-(4-{[(4S)-2,2-dimethyl-1-[(1-{6-[5-(1-methylcyclopropoxy)-1H-indazol-3-yl]pyrimidin-4-yl}piperidin-4-yl)methyl]piperidin-4-yl]oxy}piperidin-1-yl)-4-methoxy-1-oxo-2,3-dihydro-1H-isoindol-2-yl]piperidine-2,6-dione], under setting [1], the Dmax lay within 50 to 70%. For the same compound, the 50% degradation concentration (DC50) under setting [2] was less than 10 nM.

For `CC1(Oc2ccc3[nH]nc(-c4cc(N5CCN(C[C@H]6CC[C@H](CN7CCN(c8ccc9c(c8Cl)CN(C8CCC(=O)NC8=O)C9=O)CC7)CC6)CC5)ncn4)c3c2)CC1` (stereo partly drawn) [Compound 370, 3-[4-chloro-1-oxo-5-(4-{[(1r,4r)-4-[(4-{6-[5-(1-methylcyclopropoxy)-1H-indazol-3-yl]pyrimidin-4-yl}piperazin-1-yl)methyl]cyclohexyl]methyl}piperazin-1-yl)-2,3-dihydro-1H-isoindol-2-yl]piperidine-2,6-dione], under setting [3], the DC50 was less than 10 nM. The greatest degradation seen (Dmax) under setting [4] fell in the range of 50 to 70%.

For `COc1c(N2CCN(C[C@H]3CC[C@H](OC4CCN(c5cc(-c6[nH]nc7ccc(OC8(C)CC8)cc67)ncn5)CC4)CC3)CC2)ccc2c1CN(C1CCC(=O)NC1=O)C2=O` (stereo partly drawn) [Compound 252, 3-[4-methoxy-1-oxo-5-(4-{[(1r,4r)-4-[(1-{6-[5-(1-methylcyclopropoxy)-2H-indazol-3-yl]pyrimidin-4-yl}piperidin-4-yl)oxy]cyclohexyl]methyl}piperazin-1-yl)-2,3-dihydro-1H-isoindol-2-yl]piperidine-2,6-dione], under setting [3], the DC50 was less than 10 nM. Under setting [4], the Dmax fell in the range of 50 to 70%.

On to `C[C@H]1CN(c2cc(-c3[nH]nc4ccc(OC5(C)CC5)cc34)ncn2)CCN1CCN1CCC(CN2CCN(c3ccc4c(c3F)CN(C3CCC(=O)NC3=O)C4=O)CC2)CC1` (stereo partly drawn) [Compound 184, 3-[4-fluoro-5-[4-[[1-[2-[(2S)-2-methyl-4-[6-[5-(1-methylcyclopropoxy)-2H-indazol-3-yl]pyrimidin-4-yl]piperazin-1-yl]ethyl]-4-piperidyl]methyl]piperazin-1-yl]-1-oxo-isoindolin-2-yl]piperidine-2,6-dione], for which the Dmax (endogenous HiBit-tagged LRRK2, HEK293 cells, 24 hours, read-out: **Endogenous WT Dmax (%)) was not below 70%. Also, the DC50 (endogenous HiBit-tagged LRRK2, HEK293 cells, 24 hours, read-out: *Endogenous WT DC50) was less than 10 nM.

Turning to `CC1(Oc2ccc3[nH]nc(-c4cc(N5CCN(C[C@H]6CC[C@H](OC7CCN(c8ccc9c(c8F)CN(C8CCC(=O)NC8=O)C9=O)CC7)CC6)C(C)(C)C5)ncn4)c3c2)CC1` (stereo partly drawn) [Compound 381, 3-[4-fluoro-1-oxo-5-(4-{[(1r,4r)-4-[(2,2-dimethyl-4-{6-[5-(1-methylcyclopropoxy)-1H-indazol-3-yl]pyrimidin-4-yl}piperazin-1-yl)methyl]cyclohexyl]oxy}piperidin-1-yl)-2,3-dihydro-1H-isoindol-2-yl]piperidine-2,6-dione], the DC50 under setting [3] lay in the range of 10 to 50 nM. The Dmax under setting [4] was less than 50%.

In the case of `CC1(Oc2ccc3[nH]nc(-c4cc(N5CCC(CN6CC[C@H](OC7CCN(c8ccc9c(c8F)CN(C8CCC(=O)NC8=O)C9=O)CC7)CC6(C)C)CC5)ncn4)c3c2)CC1` (stereo partly drawn) [Compound 313, 3-[5-(4-{[(4S)-2,2-dimethyl-1-[(1-{6-[5-(1-methylcyclopropoxy)-1H-indazol-3-yl]pyrimidin-4-yl}piperidin-4-yl)methyl]piperidin-4-yl]oxy}piperidin-1-yl)-4-fluoro-1-oxo-2,3-dihydro-1H-isoindol-2-yl]piperidine-2,6-dione], under setting [1], the Dmax lay within 50 to 70%. Further, under setting [2], the DC50 was less than 10 nM.
